Measurements: patent publication US4317817A, “Novel steroid 5α-reductase inhibitors” (Richardson-Merrell Inc., priority 1980, dated 1982)
pKi: −log10 of the molar value.

Tests used:
[1] = molecular target: 5α-reductase; experiment: Affinity (Ki, Km) for 5α-reductase; format: biochemical
Excerpt: The potency of any enzyme inhibitor is often expressed in terms of its inhibition constant, Ki, which is defined mathematically in terms of established relationships of enzyme-catalyzed reaction rates to inhibitor and substrate concentrations. […] In the case of the substrate, the corresponding value is known as the Km, the relationship to combining power being roughly the same.

[2] = system: testosterone 5α-reductase; experiment: Inhibition of 5α-reductase isolated from rat prostate gland (prostate microsomes, 4-14C-testosterone); format: biochemical; settings: testosterone 2×10^-6 M, microsomes equivalent to 180 mg fresh tissue
[3] = system: ventral prostate; experiment: Prostate weight in castrated male rats treated with testosterone (benign prostatic hypertrophy procedure); format: in vivo; settings: 200 mg/kg gavage every 8 hours for 8 days plus testosterone 0.6 mg/rat s.c. daily; compared to testosterone only (Group II)
Method: The effectiveness of the present compounds for the treatment of benign prostatic hypertrophy can be illustrated by the following procedure using 3 groups of castrated male rats. Starting 10 days after castration, Test Group I (5 animals) received 200 mg/kg of (5α,20R) -4-diazo-21-hydroxy-20-methylpregnan-3-one, given by gavage every 8 hours for 8 days as a suspension in 0.25 % aqueous Methocel. Starting 8 hours after the first dose of test compound, the animals also received testosterone daily at a dose of 0.6 mg/rat s.c. in olive oil. The last dose of test compound was administered 8 hours after the last dose of testosterone and the animals were sacrificed 8 hours later. Test Group II (12 animals) received only the testosterone treatment described above while the third group of rats (10 animals) served as controls and received the oral and s.c. vehicles only. At sacrifice, the ventral prostate was removed and weighed.

[4] = system: preputial glands; experiment: Preputial gland weight in castrated male rats treated with testosterone; format: in vivo; settings: 200 mg/kg gavage every 8 hours for 8 days plus testosterone 0.6 mg/rat s.c. daily; compared to control rats

C[C@H](CO)[C@H]1CC[C@H]2[C@@H]3CC[C@H]4C(=[N+]=[N-])C(=O)CC[C@]4(C)[C@H]3CC[C@]12C
pKi [1]: 7.46
affinity for the enzyme relative to the substrate (testosterone) ([1]; vs Km of testosterone): 29 times
potency relative to the previous inhibitor ([1]; vs previously known inhibitor of the comparison): 6.3 times

C[C@@H](CO)[C@H]1CC[C@H]2[C@@H]3CC[C@H]4C(=[N+]=[N-])C(=O)CC[C@]4(C)[C@H]3CC[C@]12C [(5α,20R)-4-Diazo-21-hydroxy-20-methylpregnan-3-one]
inhibition of the conversion of testosterone to 5α-reduced products ([2]; inhibitor 3×10^-7 M): 75%
inhibition of the conversion of testosterone to DHT and androstanediol (ADIOL) overall ([2]; inhibitor 3×10^-8 M): 49%
prostatic weight (ventral prostate) [3]: significant reduction in prostatic weight
weights of preputial glands [4]: significantly less than weights of preputial glands of the control rats

CC(CO)[C@H]1CC[C@H]2[C@@H]3CCC4=CC(=O)CC[C@]4(C)[C@H]3CC[C@]12C (stereo partly drawn) [reference compound]
pKi [1]: 6.66

C[C@]12CC[C@H]3[C@@H](CCC4=CC(=O)CC[C@@]43C)[C@@H]1CC[C@@H]2O [testosterone, reference compound]
Km ([1]; substrate): 1 µM
